Six molecules from patent publication US10253081B2, “Glucagon analogues” (Zealand Pharma A/S, priority 2012, dated 2019) can be followed below.

Experiment [1] addresses T1, human glucagon receptor (Glucagon-R) (Homo sapiens, UniProt P47871).
T1 construct: expressed in transfected cells
The experiment can be described thus: Glucagon receptor efficacy assay (cAMP AlphaScreen, CHO cells). The experiment is classed as cell-based. The conditions noted are these: Table 1A; CHO cells expressing human Glucagon-R, cAMP; read-out: EC50 hGCGR CHO-K1. Put shortly: (§1)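 Stably transfected CHO clones expressing human GLP-1R or glucagon receptor were treated with increasing peptide concentrations for 15 min at room temperature in KRBH containing 0.1 mM IBMX. After lysis, cAMP was quantified by AlphaScreen; EC50 and efficacy relative to GLP-1 or glucagon reference came from curve fitting.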

Experiment [2] has as its target T2, human glucagon-like peptide 1 receptor (GLP-1R) (Homo sapiens, UniProt P43220).
T2 construct: expressed in transfected cells
The experiment can be described thus: GLP-1 receptor efficacy assay (cAMP AlphaScreen, CHO cells). The class given is cell-based. The conditions noted are these: Table 1A; for EC50: CHO cells expressing human GLP-1-R, cAMP, read-out: EC50 hGLP-1R CHO-K1; for Ratio GLP-1/Glucagon: EC50 [GLP-1R]/EC50 [Glucagon-R]. The gist of the method:
as §1

Experiment [3] has as its target T3, endogenous GLP-1 receptors (Mus musculus, UniProt O35659).
T3 construct: Agonistic activity of the test compounds on endogenous GLP-1 receptors; endogenous in cells
T3 sequence (O35659 22-463): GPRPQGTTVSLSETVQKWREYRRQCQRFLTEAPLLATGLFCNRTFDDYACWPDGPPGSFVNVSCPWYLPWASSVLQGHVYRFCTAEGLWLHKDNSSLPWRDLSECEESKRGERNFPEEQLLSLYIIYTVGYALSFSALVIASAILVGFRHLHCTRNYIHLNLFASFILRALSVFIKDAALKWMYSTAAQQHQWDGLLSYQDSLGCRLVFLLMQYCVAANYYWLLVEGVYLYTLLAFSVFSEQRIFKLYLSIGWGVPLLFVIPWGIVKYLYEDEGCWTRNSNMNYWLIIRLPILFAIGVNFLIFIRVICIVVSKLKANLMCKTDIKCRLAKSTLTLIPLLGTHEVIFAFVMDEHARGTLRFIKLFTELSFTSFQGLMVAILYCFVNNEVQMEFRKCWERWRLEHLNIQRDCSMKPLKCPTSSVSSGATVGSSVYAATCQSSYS
The experiment can be described thus: Agonistic activity on endogenous GLP-1 receptor (cAMP, murine insulinoma cell line). The conditions noted are these: intracellular cAMP, 15 minutes at 26° C.; read-out: EC50 GLP-1R (murine insulinoma cells). The class given is cell-based. The gist of the method:
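Murine insulinoma cells were exposed 15 min at 26° C in KRBH with 0.1% DMSO to compound or GLP-1 ([…]), then cAMP was measured by AlphaScreen against a standard curve, in quadruplicate. pEC50 came from curve fits; % CTL was normalised to the maximal GLP-1 cAMP response.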

A short description of experiment [4]: Oral glucose tolerance test (OGTT). The class given is in vivo, C57BL/6J mice. The conditions noted are these: blood glucose AUC 0-120 min, 10 nmol/kg s.c. 4 h before oral glucose 2 g/kg. As to the method:
Male C57BL/6J mice were fasted for 10 h before they received an oral glucose bolus of 2 g/kg body weight. Peptides were dissolved in saline buffered with 25 mM phosphate and administered at a dose of 10 nmol/kg body weight by subcutaneous injection 4 h before the glucose bolus. Control animals received a vehicle injection only. Group size was 7 animals per group. A pre-dose and a pre-glucose (0 min) blood sample were obtained by tail bleeding and blood glucose was measured with a glucometer. Additional samples of tail blood for measuring blood glucose were obtained 15 min, 30 min, 60 min, 90 min and 120 min after the glucose challenge. […] Calculation of AUC was done by the trapezoidal rule without baseline correction. The data are presented as mean±S.E.M. Statistical comparisons were conducted by one-way ANOVA followed by Tukey's post test. Vehicle alone was used as a control.

*1 amine or outer side, *2 acyl side, *3 side chain or, on linkers, in order; H or OH if unused. Where a SMILES comes first, the peptide text is derived from it. Side-chain parts run from the residue outwards. [ ]: non-standard residue; d: D form. The star is where a group is joined. γGlu = O=C(O)[C@H](CCC(=O)[*:2])N[*:1]; Palmitoyl = CCCCCCCCCCCCCCCC(=O)*; Aib = CC(C)(N)C(=O)O

T2 sequence (P43220 24-463): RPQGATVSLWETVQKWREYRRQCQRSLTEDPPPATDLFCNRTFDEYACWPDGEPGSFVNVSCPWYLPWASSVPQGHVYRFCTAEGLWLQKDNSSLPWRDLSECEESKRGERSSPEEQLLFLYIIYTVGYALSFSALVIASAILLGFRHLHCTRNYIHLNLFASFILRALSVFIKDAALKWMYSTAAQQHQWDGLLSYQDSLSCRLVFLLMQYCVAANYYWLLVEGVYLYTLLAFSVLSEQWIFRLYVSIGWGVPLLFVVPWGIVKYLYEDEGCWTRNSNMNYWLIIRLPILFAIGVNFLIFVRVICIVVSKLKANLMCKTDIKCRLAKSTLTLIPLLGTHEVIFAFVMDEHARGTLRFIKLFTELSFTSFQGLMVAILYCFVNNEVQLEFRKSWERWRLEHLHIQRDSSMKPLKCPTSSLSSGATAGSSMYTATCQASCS
T1 sequence (P47871 26-477): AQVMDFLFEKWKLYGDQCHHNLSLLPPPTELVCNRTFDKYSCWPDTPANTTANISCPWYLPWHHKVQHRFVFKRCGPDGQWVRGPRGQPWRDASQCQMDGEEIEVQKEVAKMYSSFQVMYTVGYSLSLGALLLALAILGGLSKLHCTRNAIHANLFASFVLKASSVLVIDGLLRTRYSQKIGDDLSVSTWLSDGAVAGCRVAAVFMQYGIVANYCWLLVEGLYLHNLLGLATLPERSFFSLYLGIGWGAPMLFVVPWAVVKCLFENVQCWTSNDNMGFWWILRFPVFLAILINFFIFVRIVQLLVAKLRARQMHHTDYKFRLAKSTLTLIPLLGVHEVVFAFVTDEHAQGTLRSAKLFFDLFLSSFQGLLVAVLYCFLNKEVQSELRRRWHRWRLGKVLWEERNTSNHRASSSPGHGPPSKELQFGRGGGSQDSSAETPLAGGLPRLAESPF

With `CCCCCCCCCCCCCCCC(=O)N[C@@H](CCC(=O)NCCCC[C@H](NC(=O)[C@H](CO)NC(=O)[C@H](CC(=O)O)NC(=O)[C@H](CC(C)C)NC(=O)[C@H](Cc1ccc(O)cc1)NC(=O)[C@H](CCCCN)NC(=O)[C@H](CO)NC(=O)[C@H](Cc1ccc(O)cc1)NC(=O)[C@H](CC(=O)O)NC(=O)[C@H](CO)NC(=O)[C@@H](NC(=O)[C@H](Cc1ccccc1)NC(=O)[C@@H](NC(=O)CNC(=O)[C@H](CCC(N)=O)NC(=O)[C@H](CO)NC(=O)[C@@H](N)Cc1c[nH]cn1)[C@@H](C)O)[C@@H](C)O)C(=O)N[C@@H](C)C(=O)N[C@@H](C)C(=O)N[C@@H](Cc1c[nH]cn1)C(=O)N[C@@H](CC(=O)O)C(=O)N[C@@H](Cc1ccccc1)C(=O)N[C@H](C(=O)N[C@@H](CCC(=O)O)C(=O)N[C@@H](Cc1c[nH]c2ccccc12)C(=O)N[C@@H](CC(C)C)C(=O)N[C@@H](CC(C)C)C(=O)N[C@@H](CCCNC(=N)N)C(=O)N[C@@H](C)C(=O)O)C(C)C)C(=O)O` [Compound 3, H-HSQGTFTSDYSKYLDS-K(Hexadecanoyl-isoGlu)-AAHDFVEWLLRA-OH] (H-HSQGTFTSDYSKYLDSK([γGlu-Palmitoyl])AAHDFVEWLLRA-OH), the results for the 50% effective concentration (EC50) in experiment [1], in experiment [2] and in experiment [3] were 350 pM, 910 pM and 1060 pM, respectively. Also, in experiment [2], the “Ratio GLP-1/Glucagon” value is 2.60. Further, the “AUC (% Ctrl)” value in experiment [4] turned out to be 70 % Ctrl.

For `CCCCCCCCCCCCCCCC(=O)N[C@@H](CCC(=O)NCCCC[C@H](NC(=O)[C@H](CCC(=O)O)NC(=O)[C@H](CC(=O)O)NC(=O)[C@H](CC(C)C)NC(=O)[C@H](Cc1ccc(O)cc1)NC(=O)[C@H](CCCCN)NC(=O)[C@H](CO)NC(=O)[C@H](Cc1ccc(O)cc1)NC(=O)[C@H](CC(=O)O)NC(=O)[C@H](CO)NC(=O)[C@@H](NC(=O)[C@H](Cc1ccccc1)NC(=O)[C@@H](NC(=O)CNC(=O)[C@H](CCC(N)=O)NC(=O)[C@H](CO)NC(=O)[C@@H](N)Cc1c[nH]cn1)[C@@H](C)O)[C@@H](C)O)C(=O)N[C@@H](C)C(=O)N[C@@H](C)C(=O)N[C@@H](Cc1c[nH]cn1)C(=O)N[C@@H](CCC(=O)O)C(=O)N[C@@H](Cc1ccccc1)C(=O)N[C@H](C(=O)N[C@@H](CCC(=O)O)C(=O)N[C@@H](Cc1c[nH]c2ccccc12)C(=O)N[C@@H](CC(C)C)C(=O)N[C@@H](CCC(=O)O)C(=O)N[C@@H](CO)C(=O)N[C@@H](C)C(N)=O)C(C)C)C(=O)O` [Compound 10, H-HSQGTFTSDYSKYLDE-K(Hexadecanoyl-isoGlu)-AAHEFVEWLESA-NH2] (H-HSQGTFTSDYSKYLDEK([γGlu-Palmitoyl])AAHEFVEWLESA-NH2), the values for the EC50 in experiment [1], in experiment [2] and in experiment [3] were 230 pM, 230 pM and 330 pM, respectively. In addition, the “Ratio GLP-1/Glucagon” value in experiment [2] is 1.00. For the same molecule, in experiment [4], the “AUC (% Ctrl)” value worked out at 46 % Ctrl.

Regarding `CCCCCCCCCCCCCCCC(=O)N[C@@H](CCC(=O)NCCCC[C@H](NC(=O)[C@H](CO)NC(=O)[C@H](CC(=O)O)NC(=O)[C@H](CC(C)C)NC(=O)[C@H](Cc1ccc(O)cc1)NC(=O)[C@H](CCCCN)NC(=O)[C@H](CO)NC(=O)[C@H](Cc1ccc(O)cc1)NC(=O)[C@H](CC(=O)O)NC(=O)[C@H](CO)NC(=O)[C@@H](NC(=O)[C@H](Cc1ccccc1)NC(=O)[C@@H](NC(=O)CNC(=O)[C@H](CCC(N)=O)NC(=O)[C@H](CO)NC(=O)[C@@H](N)Cc1c[nH]cn1)[C@@H](C)O)[C@@H](C)O)C(=O)N[C@@H](C)C(=O)N[C@@H](C)C(=O)N[C@@H](CCC(=O)O)C(=O)N[C@@H](CC(=O)O)C(=O)N[C@@H](Cc1ccccc1)C(=O)N[C@H](C(=O)N[C@@H](CCC(=O)O)C(=O)N[C@@H](Cc1c[nH]c2ccccc12)C(=O)N[C@@H](CC(C)C)C(=O)N[C@@H](CC(C)C)C(=O)N[C@@H](CCCNC(=N)N)C(=O)N[C@@H](C)C(N)=O)C(C)C)C(=O)O` [Compound 7, H-HSQGTFTSDYSKYLDS-K(Hexadecanoyl-isoGlu)-AAEDFVEWLLRA-NH2] (H-HSQGTFTSDYSKYLDSK([γGlu-Palmitoyl])AAEDFVEWLLRA-NH2), the EC50 – broadly, the concentration at which the effect is half-maximal – in experiment [1] worked out at 450 pM; in experiment [2], 270 pM; in experiment [3], 840 pM. Further, in experiment [2], the “Ratio GLP-1/Glucagon” value stood at 0.60. Also, the “AUC (% Ctrl)” value in experiment [4] was determined as 57 % Ctrl.

Consider `CCCCCCCCCCCCCCCC(=O)N[C@@H](CCC(=O)NCCCC[C@H](NC(=O)[C@H](CO)NC(=O)[C@H](CC(=O)O)NC(=O)[C@H](CC(C)C)NC(=O)[C@H](Cc1ccc(O)cc1)NC(=O)[C@H](CCCCN)NC(=O)[C@H](CO)NC(=O)[C@H](Cc1ccc(O)cc1)NC(=O)[C@H](CC(=O)O)NC(=O)[C@H](CO)NC(=O)[C@@H](NC(=O)[C@H](Cc1ccccc1)NC(=O)[C@@H](NC(=O)CNC(=O)[C@H](CCC(N)=O)NC(=O)[C@H](CO)NC(=O)[C@@H](N)Cc1c[nH]cn1)[C@@H](C)O)[C@@H](C)O)C(=O)N[C@@H](C)C(=O)N[C@@H](C)C(=O)N[C@@H](Cc1c[nH]cn1)C(=O)N[C@@H](CC(=O)O)C(=O)N[C@@H](Cc1ccccc1)C(=O)N[C@H](C(=O)N[C@@H](CCC(=O)O)C(=O)N[C@@H](Cc1c[nH]c2ccccc12)C(=O)N[C@@H](CC(C)C)C(=O)N[C@@H](CC(C)C)C(=O)N[C@@H](CO)C(N)=O)C(C)C)C(=O)O` [Compound 8, H-HSQGTFTSDYSKYLDS-K(Hexadecanoyl-isoGlu)-AAHDFVEWLLS-NH2] (H-HSQGTFTSDYSKYLDSK([γGlu-Palmitoyl])AAHDFVEWLLS-NH2), for which the EC50 in experiment [1] came out at 290 pM; in experiment [2], 410 pM; in experiment [3] it was 950 pM. For the same molecule, in experiment [2], the “Ratio GLP-1/Glucagon” value was 1.41. In addition, the “AUC (% Ctrl)” value in experiment [4] was 50 % Ctrl.

Turning to `CCCCCCCCCCCCCCCC(=O)N[C@@H](CCC(=O)NCCCC[C@H](NC(=O)[C@H](CO)NC(=O)[C@H](CC(=O)O)NC(=O)[C@H](CC(C)C)NC(=O)[C@H](Cc1ccc(O)cc1)NC(=O)[C@H](CCCCN)NC(=O)[C@H](CO)NC(=O)[C@H](Cc1ccc(O)cc1)NC(=O)[C@H](CC(=O)O)NC(=O)[C@H](CO)NC(=O)[C@@H](NC(=O)[C@H](Cc1ccccc1)NC(=O)[C@@H](NC(=O)CNC(=O)[C@H](CCC(N)=O)NC(=O)C(C)(C)NC(=O)[C@@H](N)Cc1c[nH]cn1)[C@@H](C)O)[C@@H](C)O)C(=O)N[C@@H](C)C(=O)N[C@@H](C)C(=O)N[C@@H](Cc1c[nH]cn1)C(=O)N[C@@H](CC(=O)O)C(=O)N[C@@H](Cc1ccccc1)C(=O)N[C@H](C(=O)N[C@@H](CCC(=O)O)C(=O)N[C@@H](Cc1c[nH]c2ccccc12)C(=O)N[C@@H](CC(C)C)C(=O)N[C@@H](CCC(=O)O)C(=O)N[C@@H](CO)C(=O)N[C@@H](C)C(N)=O)C(C)C)C(=O)O` [Compound 5, H-H-Aib-QGTFTSDYSKYLDS-K(Hexadecanoyl-isoGlu)-AAHDFVEWLESA-NH2] (H-H[Aib]QGTFTSDYSKYLDSK([γGlu-Palmitoyl])AAHDFVEWLESA-NH2), the EC50 came out at 460 pM in experiment [1], 160 pM in experiment [2] and 540 pM in experiment [3]. Besides, in experiment [2], the “Ratio GLP-1/Glucagon” value is 0.35. Besides, the “AUC (% Ctrl)” value in experiment [4] is given as 46 % Ctrl.

For the molecule `CCCCCCCCCCCCCCCC(=O)N[C@@H](CCC(=O)NCCCC[C@H](NC(=O)[C@H](CO)NC(=O)[C@H](CC(=O)O)NC(=O)[C@H](CC(C)C)NC(=O)[C@H](Cc1ccc(O)cc1)NC(=O)[C@H](CCCCN)NC(=O)[C@H](CO)NC(=O)[C@H](Cc1ccc(O)cc1)NC(=O)[C@H](CC(=O)O)NC(=O)[C@H](CO)NC(=O)[C@@H](NC(=O)[C@H](Cc1ccccc1)NC(=O)[C@@H](NC(=O)CNC(=O)[C@H](CCC(N)=O)NC(=O)[C@H](CO)NC(=O)[C@@H](N)Cc1c[nH]cn1)[C@@H](C)O)[C@@H](C)O)C(=O)N[C@@H](C)C(=O)N[C@@H](C)C(=O)N[C@@H](Cc1c[nH]cn1)C(=O)N[C@@H](CC(=O)O)C(=O)N[C@@H](Cc1ccccc1)C(=O)N[C@H](C(=O)N[C@@H](CCC(=O)O)C(=O)N[C@@H](Cc1c[nH]c2ccccc12)C(=O)N[C@@H](CC(C)C)C(=O)N[C@@H](CC(C)C)C(=O)N[C@@H](CO)C(=O)N[C@@H](C)C(=O)O)C(C)C)C(=O)O` [Compound 2, H-HSQGTFTSDYSKYLDS-K(Hexadecanoyl-isoGlu)-AAHDFVEWLLSA-OH] (H-HSQGTFTSDYSKYLDSK([γGlu-Palmitoyl])AAHDFVEWLLSA-OH), the values for the concentration for a half-maximal effect (EC50) in experiment [1], in experiment [2] and in experiment [3] were 310 pM, 770 pM and 1410 pM, respectively. In experiment [2], the “Ratio GLP-1/Glucagon” value came out at 2.48. Moreover, the “AUC (% Ctrl)” value in experiment [4] came out at 66 % Ctrl.
